Test results as given in patent US8791148B2, “Substituted benzimidazolone derivatives, medicaments comprising them and their use” (AbbVie Deutschland GmbH & Co. KG, priority 2006, dated 2014).

Target: T1, human vasopressin V1b receptor (Homo sapiens, UniProt P47901)
T1 construct: expressed in transfected cells; host or cells: CHO-K1 (cell line hV1b-3H2_CHO), membrane preparation
T1 sequence (P47901 1-424): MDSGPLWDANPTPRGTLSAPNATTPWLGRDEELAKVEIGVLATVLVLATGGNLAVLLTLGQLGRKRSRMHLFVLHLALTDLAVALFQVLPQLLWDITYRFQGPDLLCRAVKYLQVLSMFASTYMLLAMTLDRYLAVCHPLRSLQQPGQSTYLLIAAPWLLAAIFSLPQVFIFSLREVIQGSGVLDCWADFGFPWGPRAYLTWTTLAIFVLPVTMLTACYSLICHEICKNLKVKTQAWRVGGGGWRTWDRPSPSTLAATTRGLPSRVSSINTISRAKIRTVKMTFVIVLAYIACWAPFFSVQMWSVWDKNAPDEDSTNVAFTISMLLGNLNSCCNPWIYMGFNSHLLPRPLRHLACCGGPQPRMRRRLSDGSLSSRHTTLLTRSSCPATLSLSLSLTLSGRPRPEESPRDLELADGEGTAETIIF
Assay: Vasopressin V1b receptor binding assay
Conditions: membranes from CHO-K1 cells with stably expressed human V1b receptors; displacement of 1.5 nM 3H-AVP; read-out: V1b receptor affinity (affinity constant Ki)
Procedure, shortened: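 Ki values come from nonlinear regression of triplicate scintillation counts after filtration. Test compound (2% DMSO in the mixture) and radioligand were incubated 60 min at room temperature with human V1b membranes in pH 7.4 Tris buffer with 10 mM MgCl2 and 0.1% BSA. Nonspecific binding was set with 1 uM AVP.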

Row | SMILES | Ki
1 | COc1ccc(S(=O)(=O)n2c(=O)n(C(C(=O)N3CCC[C@H](N)C3)c3ccccc3)c3cc(C#N)ccc32)cc1 (stereo partly drawn) [Example 240, 3-[2-((S)-3-Amino-piperidin-1-yl)-2-oxo-1-phenyl-ethyl]-1-(4-methoxybenzenesulfonyl)-2-oxo-2,3-dihydro-1H-benzoimidazole-5-carbonitrile] | 100 to 500 nM
2 | COc1ccc(S(=O)(=O)n2c(=O)n(C(C(=O)N3CCC[C@@H](N)C3)c3ccccc3)c3cc(C#N)ccc32)cc1 (stereo partly drawn) [Example 241, 3-[2-((R)-3-Amino-piperidin-1-yl)-2-oxo-1-phenyl-ethyl]-1-(4-methoxybenzenesulfonyl)-2-oxo-2,3-dihydro-1H-benzoimidazole-5-carbonitrile] | 500 to 10000 nM
3 | COc1ccc(S(=O)(=O)n2c(=O)n(C(C(=O)N3CC[C@H](NC4CCN(C(=O)OC(C)(C)C)CC4)C3)c3ccccc3)c3cc(C#N)ccc32)cc1 (stereo partly drawn) [Example 243, 4-((S)-1-{2-[6-Cyano-3-(4-methoxy-benzenesulfonyl)-2-oxo-2,3-dihydrobenzoimidazol-1-yl]-2-phenyl-acetyl}-pyrrolidin-3-ylamino)-piperidine-1-carboxylic acid tert-butyl ester] | 500 to 10000 nM
4 | COc1ccc(S(=O)(=O)n2c(=O)n(C(C(=O)N3CCC[C@H](NC4CCN(C)CC4)C3)c3ccccc3)c3cc(C#N)ccc32)cc1 (stereo partly drawn) [Example 246, 1-(4-Methoxy-benzenesulfonyl)-3-{2-[(S)-3-(1-methyl-piperidin-4-ylamino)-piperidin-1-yl]-2-oxo-1-phenyl-ethyl}-2-oxo-2,3-dihydro-1H-benzoimidazole-5-carbonitrile] | 100 to 500 nM
5 | COc1ccc(S(=O)(=O)n2c(=O)n(C(C(=O)N3CCC[C@@H](NC4CCN(C)CC4)C3)c3ccccc3)c3cc(C#N)ccc32)cc1 (stereo partly drawn) [Example 248, 1-(4-Methoxy-benzenesulfonyl)-3-{2-[(R)-3-(1-methyl-piperidin-4-ylamino)-piperidin-1-yl]-2-oxo-1-phenyl-ethyl}-2-oxo-2,3-dihydro-1H-benzoimidazole-5-carbonitrile] | 100 to 500 nM
6 | COc1ccc(S(=O)(=O)n2c(=O)n(C(C(=O)N3CC[C@H](NC(=O)C4CCN(C)CC4)C3)c3ccccc3)c3cc(C#N)ccc32)cc1 (stereo partly drawn) [Example 252, 1-Methyl-piperidine-4-carboxylic acid ((S)-1-{2-[6-cyano-3-(4-methoxybenzenesulfonyl)-2-oxo-2,3-dihydro-benzoimidazol-1-yl]-2-phenyl-acetyl}-pyrrolidin-3-yl)-amide; compound with trifluoroacetic acid] | 100 to 500 nM
7 | COc1ccc(S(=O)(=O)n2c(=O)n(C(C(=O)N3CC[C@H](Nc4ccnc(C)c4)C3)c3ccccc3)c3cc(C#N)ccc32)cc1 (stereo partly drawn) [Example 254, 1-(4-Methoxy-benzenesulfonyl)-3-{2-[(S)-3-(2-methyl-pyridine-4-ylamino)-pyrrolidin-1-yl]-2-oxo-1-phenyl-ethyl}-2-oxo-2,3-dihydro-1H-benzoimidazole-5-carbonitrile; compound with trifluoroacetic acid] | 100 to 500 nM

Other lines, results leading:

Row | Ki | SMILES
8 | < 100 nM | COc1ccc(S(=O)(=O)n2c(=O)n(C(C(=O)N3CC[C@H](NCc4c[nH]cn4)C3)c3ccccc3)c3cc(C#N)ccc32)cc1 (stereo partly drawn) [Example 242, 3-(2-{(S)-3-[(1H-Imidazol-4-ylmethyl)-amino]-pyrrolidin-1-yl}-2-oxo-1-phenylethyl)-1-(4-methoxy-benzenesulfonyl)-2-oxo-2,3-dihydro-1H-benzoimidazole-5-carbonitrile; compound with trifluoroacetic acid]
9 | < 100 nM | COc1ccc(S(=O)(=O)n2c(=O)n(C(C(=O)N3CC[C@H](NC4CCN(C(C)(C)C)CC4)C3)c3ccccc3)c3cc(C#N)ccc32)cc1 (stereo partly drawn) [Example 244, 3-{2-[(S)-3-(1-tert-Butyl-piperidin-4-ylamino)-pyrrolidin-1-yl]-2-oxo-1-phenylethyl}-1-(4-methoxy-benzenesulfonyl)-2-oxo-2,3-dihydro-1H-benzoimidazole-5-carbonitrile]
10 | < 100 nM | COc1ccc(S(=O)(=O)n2c(=O)n(C(C(=O)N3CC[C@H](NC4CCN(CCF)CC4)C3)c3ccccc3)c3cc(C#N)ccc32)cc1 (stereo partly drawn) [Example 245, 3-(2-{(S)-3-[1-(2-Fluoro-ethyl)-piperidin-4-ylamino]-pyrrolidin-1-yl}-2-oxo-1-phenyl-ethyl)-1-(4-methoxy-benzenesulfonyl)-2-oxo-2,3-dihydro-1H-benzoimidazole-5-carbonitrile]
11 | < 100 nM | COc1ccc(S(=O)(=O)n2c(=O)n(C(C(=O)N3CCC[C@H](NC4CCN(C(C)C)CC4)C3)c3ccccc3)c3cc(C#N)ccc32)cc1 (stereo partly drawn) [Example 247, 3-{2-[(S)-3-(1-Isopropyl-piperidin-4-ylamino)-piperidin-1-yl]-2-oxo-1-phenylethyl}-1-(4-methoxy-benzenesulfonyl)-2-oxo-2,3-dihydro-1H-benzoimidazole-5-carbonitrile]
12 | < 100 nM | COc1ccc(S(=O)(=O)n2c(=O)n(C(C(=O)N3CCC[C@@H](NC4CCN(C(C)C)CC4)C3)c3ccccc3)c3cc(C#N)ccc32)cc1 (stereo partly drawn) [Example 249, 3-{2-[(R)-3-(1-Isopropyl-piperidin-4-ylamino)-piperidin-1-yl]-2-oxo-1-phenylethyl}-1-(4-methoxy-benzenesulfonyl)-2-oxo-2,3-dihydro-1H-benzoimidazole-5-carbonitrile]
13 | < 100 nM | COc1ccc(S(=O)(=O)n2c(=O)n(C(C(=O)N3CC[C@H](Nc4ccncc4)C3)c3ccccc3)c3cc(C#N)ccc32)cc1 (stereo partly drawn) [Example 253, 1-(4-Methoxy-benzenesulfonyl)-2-oxo-3-{2-oxo-1-phenyl-2-[(S)-3-(pyridine-4-ylamino)-pyrrolidin-1-yl]-ethyl}-2,3-dihydro-1H-benzoimidazole-5-carbonitrile; compound with trifluoroacetic acid]
14 | < 100 nM | COc1ccc(S(=O)(=O)n2c(=O)n(C(C(=O)N3CC[C@H](CNC4CCN(C)CC4)C3)c3ccccc3)c3cc(C#N)ccc32)cc1 (stereo partly drawn) [Example 255, 1-(4-Methoxy-benzenesulfonyl)-3-(2-{(R)-3-[(1-methyl-piperidin-4-ylamino)-methyl]-pyrrolidin-1-yl}-2-oxo-1-phenyl-ethyl)-2-oxo-2,3-dihydro-1H-benzoimidazole-5-carbonitrile; compound with trifluoroacetic acid]
15 | < 100 nM | COc1ccc(S(=O)(=O)n2c(=O)n(C(C(=O)N3CC[C@H](CN(C)C4CCN(C)CC4)C3)c3ccccc3)c3cc(C#N)ccc32)cc1 (stereo partly drawn) [Example 256, 1-(4-Methoxy-benzenesulfonyl)-3-[2-((R)-3-{[methyl-(1-methyl-piperidin-4-yl)-amino]-methyl}-pyrrolidin-1-yl)-2-oxo-1-phenyl-ethyl]-2-oxo-2,3-dihydro-1H-benzoimidazole-5-carbonitrile; compound with trifluoroacetic acid]
